Test results taken from patent US20090093454A1, “Chemical Compounds” (priority 2005, published 2009).
Where a name gives a salt, the structure may show the parent alone.

What follows are molecules tested on HIV-1 IIIB (assay: HOS HIV-1 infectivity assay, IIIB strain). Settings: Human immunodeficiency virus 1, IIIB, HOS, 96 h, read-out: HOS (3B) (μM).
Assay type: cell-based
Protocol: (§1) Compounds were profiled against two HIV-1 viruses, the M-tropic (CCR5 utilizing) Ba-L strain and the T-tropic (CXCR4 utilizing) IIIB strain. Both viruses were propagated in human peripheral blood lymphocytes. Compounds were tested for there ability to block infection of the HOS cell line (expressing hCXCR4/hCCR5/hCD4/pHIV-LTR-luciferase) by either HIV-1 Ba-L or HIV-1, IIIB. Compound cytotoxicity was also examined in the absence of virus addition.
(§2) HOS cells (expressing hCXCR4/hCCR5/hCD4/pHIV-LTR-luciferase) were harvested and diluted in Dulbeccos modified Eagles media supplemented with 2% FCS and non-essential amino acid to a concentration of 60,000 cells/ml. The cells were plated into 96-well plates (100 ul per well) and the plates were placed in a tissue culture incubator (37° C.; 5% CO2/95% air) for a period of 24 h.
Subsequently, 50 ul of the desired drug solution (4 times the final concentration) was added to each well and the plates were returned to the tissue culture incubator (37° C.; 5% CO2/95% air) for 1 h. Following this incubation 50 ul of diluted virus was added to each well (approximately 2 million RLU per well of virus). The plates were returned to the tissue culture incubator (37° C.; 5% CO2/95% air) and were incubated for a further 96 h.
Following this incubation the endpoint for the virally infected cultures was quantified following addition of Steady-Glo Luciferase assay system reagent (Promega, Madison, Wis.). Cell viability or non-infected cultures was measured using a CellTiter-Glo luminescent cell viability assay system (Promega, Madison, Wis.). All luminescent readouts are performed on a Topcount luminescence detector (Packard, Meridien, Conn.).
as §1, with “Ba-L was” for “Both viruses were”, “either peripheral blood lymphocytes or SupT1/CCR5+/CXCR4+ cells. IIIB was propagated in” for “human”, “their” for “there”
as §2, with “FCS” for “FCS and non-essential amino acid”, “120,000” for “60,000”, “(50 μl” for “(100 ul”, “(370°” for “(37°”
Subsequently, 50 μl of the desired drug solution (2 times the final concentration) was added to each well and the plates were returned to the tissue culture incubator (370° C.; 5% CO2/95% air) for 1 h. Following this incubation, 60 μl of diluted virus (4 times the final concentration) was added to 60 μl of 2× the final desired concentration of the compound and 100 μl of this compound/virus mix was added to each well (approximately 2 million RLU per well of virus). The plates were returned to the tissue culture incubator (370° C.; 5% CO2/95% air) and were incubated for a further 96 h.

| SMILES | IC50 |
| --- | --- |
| c1cnc2c(c1)CC[C@@H]1CCCN(Cc3nc4ccccc4[nH]3)[C@H]21 (racemic) [Example 7, (cis)-1-(1H-Benzimidazol-2-ylmethyl)-1,2,3,4,4a,5,6,10b-octahydro-1,10-phenanthroline] | 1 µM |
| c1cnc2c(c1)CC[C@H]1CCCN(Cc3nc4ccccc4[nH]3)[C@H]21 (racemic) [Example 6, (trans)-1-(1H-Benzimidazol-2-ylmethyl)-1,2,3,4,4a,5,6,10b-octahydro-1,10-phenanthroline] | 0.47 µM |

Same assay, conditions: Human immunodeficiency virus 1; T-tropic (CXCR4 utilizing) IIIB strain, HOS cells, 96 h, luciferase; read-out: HOS (3B)

| SMILES | IC50 |
| --- | --- |
| CN(C)CCCn1c(CN2CCC[C@@H]3CCc4cccnc4[C@@H]32)nc2ccccc21 [Example 11A, (3-{2-[(4aS,10bR)-3,4,4a,5,6,10b-Hexahydro-1,10-phenanthrolin-1(2H)-ylmethyl]-1H-benzimidazol-1-yl}propyl)dimethylamine] | 0.53 µM |
| NCCCn1c(CN2CCC[C@H]3CCc4cccnc4[C@H]32)nc2ccccc21 (racemic) [Example 9, (cis)-3-[2-(3,4,4a,5,6,10b-Hexahydro-1,10-phenanthrolin-1(2H)-ylmethyl)-1H-benzimidazol-1-yl]-1-propanamine] | 0.073 µM |
| CN1CCN(c2cccc3nc(CN4CCC[C@H]5CCc6cccnc6[C@H]54)cn23)CC1 (racemic) [Example 15B, (cis)-1-{[5-(4-Methyl-1-piperazinyl)imidazo[1,2-a]pyridin-2-yl]methyl}-1,2,3,4,4a,5,6,10b-octahydro-1,10-phenanthroline] | 0.004 µM |
| CN1CCCC(Cn2c(CN3CCC[C@H]4CCc5cccnc5[C@H]43)nc3ccccc32)C1 (mixture of isomers) [Example 13, (cis)-1-({1-[(1-Methyl-3-piperidinyl)methyl]-1H-benzimidazol-2-yl}methyl)-1,2,3,4,4a,5,6,10b-octahydro-1,10-phenanthroline] | 0.05 µM |
| CN(C)CCCn1c(CN2CCC[C@H]3CCc4cccnc4[C@H]32)nc2ccccc21 [Example 11B, (3-{2-[(4aR,10bS)-3,4,4a,5,6,10b-Hexahydro-1,10-phenanthrolin-1(2H)-ylmethyl]-1H-benzimidazol-1-yl}propyl)dimethylamine] | 0.035 µM |
| CN1CCN(c2cccc3nc(CN4CCC[C@H]5CCc6cccnc6[C@H]54)[nH]c23)CC1 (racemic) [Example 33, (cis)-1-{[4-(4-Methyl-1-piperazinyl)-1H-benzimidazol-2-yl]methyl}-1,2,3,4,4a,5,6,10b-octahydro-1,10-phenanthroline] | 0.0035 µM |
| NCCCn1c(CN2CCC[C@@H]3CCc4cccnc4[C@H]32)nc2ccccc21 (racemic) [Example 8, (trans)-3-[2-(3,4,4a,5,6,10b-Hexahydro-1,10-phenanthrolin-1(2H)-ylmethyl)-1H-benzimidazol-1-yl]-1-propanamine] | 0.22 µM |
| c1cnc2c(c1)CC[C@@H]1CCCN(Cc3nc4ccccc4n3Cc3ccncc3)[C@H]21 (racemic) [Example 12, (cis)-1-{[1-(4-Pyridinylmethyl)-1H-benzimidazol-2-yl]methyl}-1,2,3,4,4a,5,6,10b-octahydro-1,10-phenanthroline] | 0.77 µM |
| CN1CCN(c2cccc3nc(CN4CCC[C@@H]5CCc6cccnc6[C@H]54)cn23)CC1 (racemic) [Example 15A, (trans)-1-{[5-(4-Methyl-1-piperazinyl)imidazo[1,2-a]pyridin-2-yl]methyl}-1,2,3,4,4a,5,6,10b-octahydro-1,10-phenanthroline] | 0.033 µM |
| CN1CCN(c2cccc3nc(CN4CCC[C@@H]5CCc6cccnc6[C@@H]54)cn23)CC1 [Example 22, (4aS,10bR)-1-{[5-(4-Methyl-1-piperazinyl)imidazo[1,2-a]pyridin-2-yl]methyl}-1,2,3,4,4a,5,6,10b-octahydro-1,10-phenanthroline] | 0.1 µM |
| CN(C)CCCn1c(CN2CCC[C@H]3CCc4cccnc4[C@@H]32)nc2ccccc21 (stereo in doubt) [Example 10A, (3-{2-[(4aR,10bR)-3,4,4a,5,6,10b-Hexahydro-1,10-phenanthrolin-1(2H)-ylmethyl]-1H-benzimidazol-1-yl}propyl)dimethylamine] | 0.33 µM |
| CN(C)CCCn1c(CN2CCC[C@@H]3CCc4cccnc4[C@H]32)nc2ccccc21 (stereo in doubt) [Example 10B, (3-{2-[(4aS,10bS)-3,4,4a,5,6,10b-Hexahydro-1,10-phenanthrolin-1(2H)-ylmethyl]-1H-benzimidazol-1-yl}propyl)dimethylamine] | 0.14 µM |
| CN1CCN(c2cccc3[nH]c(CN4CCC[C@@H]5CCc6cccnc6[C@H]54)nc23)CC1 (racemic) [Example 32, (trans)-1-{[4-(4-Methyl-1-piperazinyl)-1H-benzimidazol-2-yl]methyl}-1,2,3,4,4a,5,6,10b-octahydro-1,10-phenanthroline trifluoroacetate] | 0.26 µM |
| CN1CCN(c2cccc3nc(CN4CCC[C@H]5CCc6cccnc6[C@H]54)cn23)CC1 [Example 27, (4aR,10bS)-1-{[5-(4-Methyl-1-piperazinyl)imidazo[1,2-a]pyridin-2-yl]methyl}-1,2,3,4,4a,5,6,10b-octahydro-1,10-phenanthroline] | 0.004 µM |
